Test results from patent US20220142160A1, “METHOD OF INHIBITING OR REDUCING BIOFILM IN A PETROLEUM PRODUCTION PROCESS” (KEMIRA OYJ, priority 2019, published 2022).
Values joined by “and” are separate entries in the source; they are usually repeats but may differ in a detail not shown here. Equal entries are not always repeated.

Columns and labels:
Assay type in all cases: cell-based, mixed culture of oil field bacteria
[1] = system: Sulphate Reducing Bacteria (SRB); test: Bacterial growth control test, planktonic bacterial counts, SRB; conditions: 75 ppm AMA-324 (active ingredient), sampled day 6; 3.5% nutrient brine with dodecane, 32° C., 75 rpm
Method: (§1) A mixed culture of oil field bacteria with Sulphate Reducing Bacteria (SRB), Acid Producing Bacteria (APB), and General Heterotrophic Bacteria (GHB) that came from an oil field system and had been frozen in glycerol maintained at −80° C. was used to study the effect of the test chemical compounds on biofilm formation and control thereof.
(§2) Biofilm tests were performed in 3.5 weight-% nutrient brine (NB) solution with minimal nutrients and a mixture of dodecane isomers, which are customary in oil field production waters and storage tanks.
(§3) The oilfield bacteria consortia was inoculated into the 3.5 weight-% nutrient brine solution and allowed to acclimate overnight at 32° C. in bulk. After acclimation, the solution was divided into 250 mL Pyrex bottles to contain 200 mL of the inoculated 3.5 weight-% nutrient brine and 25 mL of dodecane. Biofilms were grown on glass slides as removable attachment surfaces. Bottles were incubated at 32° C. with a rotary shaking (75 rpm) providing medium flow in each container.
(§4) Reactors each containing 200 mL of 3.5% nutrient brine were inoculated with the oilfield bacterial consortia and 25 mL of dodecane was treated with different amounts of the chemical compounds to be tested. A nitrogen blanket was added to the top of each reactor to minimize the oxygen content and allow a beneficial environment for anaerobic bacterial growth. […]

[2] = system: Acid Producing Bacteria (APB); test: Bacterial growth control test, planktonic bacterial counts, APB; conditions: 75 ppm AMA-324 (active ingredient), sampled day 6; 3.5% nutrient brine with dodecane, 32° C., 75 rpm
Method: as §1, §2, §3, §4

[3] = system: General Heterotrophic Bacteria (GHB); test: Bacterial growth control test, planktonic bacterial counts, GHB; conditions: 75 ppm AMA-324 (active ingredient), sampled day 6; 3.5% nutrient brine with dodecane, 32° C., 75 rpm
Method: as §1, §2, §3, §4

[4] = system: Sulphate Reducing Bacteria (SRB); test: Sessile bacterial counts from biofilm scraped off glass slides, SRB; conditions: slide scraped day 6, 3.5% nutrient brine with dodecane, 32° C., 75 rpm
Method: as §1, §2, §3, §4

[5] = system: biofilm of mixed oilfield consortia; test: Quantification of formed biofilm, weight gain of glass slides; set-up: average weight gain of Slides A and B: unit: mg; conditions: for average weight gain of Slides A and B: day 6; for Slide A weight gain: slide removed day 6, dried and weighed without further manipulation; for Slide B weight gain: slide removed day 6, scraped at 1 cm^2, then dried and weighed
Method: as §1, §2, §3
Two glass slides were added to each reactor bottle as described above and below and were removed at the end of the 6-day test for observation of biofilm accumulation, with the following considerations. For biofilm control experiments comprising biofilm removal from glass slides in 3.5% nutrient brine media inoculated with the mixed oilfield bacterial cultures and dodecane, biofilm was grown without addition of any test chemical compound to be tested in the control. In the reactors containing the test chemical compound, they were re-dosed daily for 5 days. A nitrogen blanket was added to each reactor after each dosing.
As described above, two glass slides were added to each reactor bottle. One was used for bacterial counts and the second was used to observe for biofilm accumulation. The second glass slide used to observe for growth was rinsed with deionized water, dried for 20 hours at 70° C., weighed and photographed. The weight values shown in the following tables are weights from 3 replicate reactor bottles. All weight values are given as actual measured values of the glass slides.
Table 3 presents results related to the effect on biofilm biomass of Compound A and AMA-324 dosing on the mixed oilfield consortia in 3.5 weight-% nutrient brine with dodecane at 32° C. and 75 rpm. Compound A was dosed daily for 5 days. AMA-324 was dosed at initial set-up only. Two glass slides were each weighed and added to each test container at set-up. After dosing for 5 days, at day 6, the slides were removed for analysis. Slide A was dried and weighed without further manipulation. Slide B was scrapped at 1 cm^2 with a sterile wooden stick into sterile phosphate buffer solution for bacterial counts. The scraped glass slide was then dried and weighed.

[6] = system: mixed oilfield bacterial consortia; test: Biocidal activity on mixed oilfield bacterial consortia (bacterial counts)
Method: as §1, §2, §3, §4

biofilm biomass = test: Optical density measurements of biofilm biomass; conditions: data not shown
[7] = 75 ppm AMA-324 dosed at initial set-up only
[8] = 2 ppm Compound A dosed daily for 5 days
[9] = 5 ppm Compound A dosed daily for 5 days

Compound	Planktonic Bacterial Counts/mL SRB bacteria [1] [Counts/mL]	Planktonic Bacterial Counts/mL APB bacteria [2] [Counts/mL]	Planktonic Bacterial Counts/mL GHB bacteria [3] [Counts/mL]	Sessile Bacterial Counts/mL SRB bacterial ([4]; 75 ppm AMA-324 (active ingredient)) [Counts/mL]	average weight gain of Slides A and B [5, 7]	Slide A weight gain [5, 7]	Slide B weight gain [5, 7]	biocidal activity (bacterial counts as compared to the control) ([6]; dosage of 75 ppm active ingredient alone)	Sessile Bacterial Counts/mL SRB bacterial ([4]; 5.0 ppm Compound A dosed daily for 5 days) [Counts/mL]	average weight gain of Slides A and B [5, 8]	Slide B weight gain [5, 8]	average weight gain of Slides A and B [5, 9]	Slide A weight gain [5, 9]	biofilm formation (weight of slides versus control or AMA-324) ([5]; Table 3 results, 1 to 5 ppm dosed daily for 5 days)	biocidal activity (bacterial counts as compared to the control) ([6]; dosage range of 1 ppm to 5 ppm, mixed oilfield bacterial consortia, anaerobic environment)	amount of biofilm biomass by optical density measurements (biofilm biomass)
CN1CSC(=S)N(C)C1 [AMA-324, Tetrahydro-3,5-dimethyl-2H-1,3,5-thiadiazine-2-thione, reference compound]	<0.3	<0.3	<0.3	<0.6	1.60 and 2.05 and 1.85	1.35 mg and 1.95 mg and 1.6 mg	1.85 mg and 2.15 mg and 2.1 mg	acted as a biocide	–	–	–	–	–	–	–	–
Cc1ccc(S(=O)(=O)C=CC#N)cc1 [Compound A, 3-[(4-methylphenyl)sulfonyl]-2-propenenitrile]	–	–	–	–	–	–	–	–	1.90E+07	0.22 and 0.40 and 0.20	0.15 mg and 0.2 mg and 0.3 mg	0.65 and 0.50 and 0.88	0.7 mg and 0.75 mg and 0.85 mg	very effectively reduced biofilm formation	did not act as a biocidal agent	decreased the amount of biofilm biomass
